In patent US20240325400A1, “Composition Comprising Skin-Specific T Cell Inhibitor as Active Ingredient for Prevention or Treatment of Atopic Dermatitis” (INDUSTRY-ACADEMIC COOPERATION FOUNDATION, YONSEI UNIVERSITY, priority 2021, published 2024):

Tests used:
[1] = tested on: cells isolated from normal skin tissue; assay: Toxicity assay using CCK-8 reagent (cell viability); format: cell-based; details: for cell viability: cells from normal skin tissue, overnight, CCK-8
Method: Thereafter, 10 μL of Cell Counting Kit-8 reagent (Dojindo Lot. PR863) was added to each well of the 96-well plate, and after 2 hours, the safety and toxicity of the drug to the normal skin tissue were evaluated by measuring the absorbance at […].

serum total IgE = assay: Serum total IgE by ELISA in atopic dermatitis mouse model; format: in vivo
Method: (§1) Then, in order to check changes in skin-specific T cells in each animal, single suspensions were prepared using the spleen, skin, and lymph nodes, and T-cells were stained using anti-CD3, anti-CD4, anti-CD8, and anti-CD45 antibodies. Flow cytometry was performed on skin-specific T cells using anti-CD69 and anti-CD103 antibodies, thereby observing the changes in number and distribution of skin-specific T cells by the application of the drug.
(§2) Blood was collected from the mouse heart and then centrifuged at 2,500 rpm for 15 minutes, and the obtained serum was used in the experiment. Then, total IgE was measured using the ELISA MAX™ Delux Set (BioLegend, San Diego, CA, USA) kit. Dermatophagoides farinae (DF)-specific IgE was measured by ELISA using a slight modification of the previously reported method. Briefly, 100 μL of 20 μg/mL DfE in 50 mmol/L carbonate buffer (pH 9.6, Sigma, St. Louis, MO, USA) per well was plated in a 96-well microtiter plate (Corning Inc., Corning)., NY, USA) and incubated overnight at 4° C. Each well was blocked with 3% skim milk in PBS (PBST) containing 0.05% Tween 20 for 1 hour at 37° C. After washing three times with PBST, each well was incubated with a serum sample (diluted to 1:20 [V/V] in 1% BSA) overnight at 4° C. […] The absorbance was measured at 450 nm with a microplate reader (TECAN, Salzburg, Austria).

[2] = tested on: Dermatophagoides farinae (DF)-specific IgE; assay: Serum total DF-specific IgE by ELISA in atopic dermatitis mouse model; format: in vivo
Method: as §1
Blood was collected from the mouse heart, and then serum total DF-specific IgE (ng/mL) (A450) was measured in a 96-well plate (Corning Inc., Corning, NY, USA) using the ELISA MAX™ Delux Set (BioLegend, San Diego, CA, USA) kit.
as §2, with “C.” for “C. Each well was blocked with 3% skim milk in PBS (PBST) containing 0.05% Tween 20 for 1 hour at 37° C. After washing three times with PBST, each well was incubated with a serum sample (diluted to 1:20 [V/V] in 1% BSA) overnight at 4° C.”

[3] = tested on: NC/Nga mice with induced atopic dermatitis; assay: H&E staining of skin of NC/Nga mice (eosinophil count, epidermal thickness); format: in vivo, mouse
Method: as §1
In atopic dermatitis, the eosinophil count is observed to be characteristically high, making it a representative biological indicator that can explain the immunological mechanism of atopic dermatitis. Based on this fact, hematoxylin and eosin (H&E) staining in NC/Nga mice was performed. […] In addition, when atopic dermatitis occurs, the skin thickens due to an excessive inflammatory response.

[4] = tested on: T cells in skin-draining lymph nodes; assay: FACS of T cell fractions in skin-draining lymph nodes of atopic dermatitis mouse model; format: in vivo
Method: as §1

T cells in the spleen = assay: FACS of T cell fractions in spleen of atopic dermatitis mouse model; format: in vivo
Method: as §1

skin-specific T cells [5] = assay: FACS of T cell fractions in skin of atopic dermatitis mouse model; format: in vivo
Method: as §1

skin-specific T cells [6] = assay: FACS of skin-specific T cells in human skin with atopic dermatitis lesions; format: cell-based; details: skin immune cells and skin lesions of atopic dermatitis patients, 50 μM and 100 μM, FIG. 13
Method: To verify the effect of the candidate drug on skin-specific T cells in human skin tissue, a single suspension was prepared using the skin from an atopic dermatitis patient. T cells were stained using anti-CD3, anti-CD4, anti-CD8 and anti-CD45 antibodies, and flow cytometry was performed on skin-specific T cells using anti-CD69 and anti-CD103 antibodies, which are skin TRM markers, thereby observing the changes in number and distribution of skin-specific T cells by the application of the drug.

[7] = 100 μM, compared to 0.1% dexamethasone

Question: How did the cell viability ([1]; 50 μM) turn out when idelalisib was run?
Answer: Its cell viability is ≥ 90%.

Question: What about the cell viability ([1]; 100 μM) of the same substance?
Answer: The cell viability was ≥ 90%.

Question: And the “toxicity in normal skin tissue” value ([1]; CCK-8, FIG. 4)?
Answer: The value was “no significant toxicity”.

Question: And the “serum total IgE level” value (serum total IgE; 50 μM and 100 μM, ELISA, FIG. 7)?
Answer: Its value is “decreased the total IgE level in a dose-dependent manner”.

Question: And the “decrease in serum total IgE level compared to positive control” value (serum total IgE; [7])?
Answer: The value was “significantly greater”.

Question: And the “total DF-specific IgE level” value ([2]; 50 μM and 100 μM, ELISA, FIG. 8)?
Answer: The value was “reduced the level of total DF-specific IgE in a dose-dependent manner”.

Question: What about the “total DF-specific IgE level compared to positive control” value [2, 7] of the same substance?
Answer: The value was “significantly decreased even compared to that in the 0.1% dexamethasone group”.

Question: What about the epidermal thickness ([3]; FIG. 9B) of the same substance?
Answer: The epidermal thickness was “decreased as the concentration of idelalisib increased”.

Question: And the eosinophil count ([3]; FIG. 9C)?
Answer: The eosinophil count was “decreased depending on the idelalisib concentration”.

Question: What about the “proportion of CD3+ T cells in skin-draining lymph nodes” value ([4]; 100 μM, FIG. 10A) of the same substance?
Answer: The value was “lowest proportion of CD3+ T cells”.

Question: And the “fraction of CD3+ CD4+ CD103+ T cells in skin-draining lymph nodes” value ([4]; 100 μM, FIG. 10B)?
Answer: The value was “statistically significantly lowest”.

Question: And the “fraction of T cells expressing CD69 among CD3+ CD4+ T cells in skin-draining lymph nodes” value ([4]; FIG. 10B)?
Answer: The value was “tended to decrease”.

Question: And the “CD69+ T cells and CD103+ T cells in the spleen” value (T cells in the spleen; FIG. 11)?
Answer: The value was “decreased statistically significantly”.

Question: What about the “proportion of CD3+ and CD4+ T cells in the spleen” value (T cells in the spleen; FIG. 11) of the same substance?
Answer: Its value is “decreased in a dose-dependent manner”.

Question: And the “CD69+ T cells and CD103+ T cells compared to positive control” value (T cells in the spleen; spleen, compared to 0.1% dexamethasone)?
Answer: Its value is “significantly decreased in the idelalisib-treated group compared to the 0.1% dexamethasone group”.

Question: What about the “proportions of CD3+ and CD4+ skin-specific T cells in the skin” value (skin-specific T cells [5]; 50 μM and 100 μM, FIG. 12) of the same substance?
Answer: The value was “significantly decreased in both the 50 μM and 100 μM idelalisib groups in a dose-dependent manner”.

Question: And the “CD69+ T cells and CD103+ T cells in the skin tissues” value (skin-specific T cells [5]; FIG. 12)?
Answer: The value was “statistically significantly decreased”.

Question: What about the “proportions of skin-specific T cells compared to positive control” value (skin-specific T cells [5]; skin, compared to 0.1% dexamethasone) of the same substance?
Answer: Its value is “significantly decreased even compared to that in the 0.1% dexamethasone-treated group”.

Question: And the “proportion of skin-specific T cells” value (skin-specific T cells [6])?
Answer: Its value is “significantly decreased in both the 50 μM and 100 μM idelalisib groups in a dose-dependent manner”.
